Reference: patent publication US11420970B1 (NOVARTIS AG, priority 2019, dated 2022)
Where two headings read alike, the source gives them in different places.

Legend:
[1] = target: NSD2 [1-1365] (Homo sapiens (Human), UniProt O96028); assay: LC-MS/MS-based NSD2 enzymatic assay (SAH production); format: biochemical; details: read-out: NSD2 IC50
Outline: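 SAH formed was measured by LC-MS/MS using d4-SAH as internal standard and an SAH calibration curve. Compounds were preincubated 20 min with NSD2 [1-1365] and SAM; mouse-liver nucleosome then started a 90 min room-temperature reaction (8 nM enzyme, 1 μM SAM, 400 nM nucleosome final, pH 8.0), stopped with TFA.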

[2] = tested on: cellular H3K36me2 level in thyroid carcinoma cell line CGTH-W-1 (NSD2 E1099K); assay: H3K36me2 cellular ELISA assay in CGTH-W-1 line; format: cell-based; details: Homo sapiens, CGTH-W-1, 72 h, read-out: H3K36me2 ELISA in CGTH-W-1
Outline: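 After 72 h compound treatment of NSD2 E1099K-mutant CGTH-W-1 cells, H3K36me2 and total H3 were quantified by ELISA with chemiluminescent read-out. A parallel-seeded plate gave cell viability by CellTiter-Glo.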

[3] = tested on: cellular H3K36me2 level in multiple myeloma cell line KMS11 (t(4;14)+); assay: H3K36me2 cellular ELISA assay in KMS11-Par line; format: cell-based; details: Homo sapiens, KMS-11, ELISA, read-out: H3K36me2 ELISA in KMS11-Par
Outline: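 After 72 h compound exposure, HCl-extracted histones from KMS11 (t(4;14)+) cells were probed by ELISA for H3K36me2 against total H3 with a chemiluminescence read-out. Cells were plated at 1,250/well in Opti-MEM plus B-27 and N2 the day before. A parallel CellTiter-Glo plate tracked viability.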

[4] = NSD2 biochemical activity, class symbols
[5] = KMS11-Par line (t(4;14)+), 72 hours treatment

Chain of NSD2 [1-1365] (O96028 whole entry): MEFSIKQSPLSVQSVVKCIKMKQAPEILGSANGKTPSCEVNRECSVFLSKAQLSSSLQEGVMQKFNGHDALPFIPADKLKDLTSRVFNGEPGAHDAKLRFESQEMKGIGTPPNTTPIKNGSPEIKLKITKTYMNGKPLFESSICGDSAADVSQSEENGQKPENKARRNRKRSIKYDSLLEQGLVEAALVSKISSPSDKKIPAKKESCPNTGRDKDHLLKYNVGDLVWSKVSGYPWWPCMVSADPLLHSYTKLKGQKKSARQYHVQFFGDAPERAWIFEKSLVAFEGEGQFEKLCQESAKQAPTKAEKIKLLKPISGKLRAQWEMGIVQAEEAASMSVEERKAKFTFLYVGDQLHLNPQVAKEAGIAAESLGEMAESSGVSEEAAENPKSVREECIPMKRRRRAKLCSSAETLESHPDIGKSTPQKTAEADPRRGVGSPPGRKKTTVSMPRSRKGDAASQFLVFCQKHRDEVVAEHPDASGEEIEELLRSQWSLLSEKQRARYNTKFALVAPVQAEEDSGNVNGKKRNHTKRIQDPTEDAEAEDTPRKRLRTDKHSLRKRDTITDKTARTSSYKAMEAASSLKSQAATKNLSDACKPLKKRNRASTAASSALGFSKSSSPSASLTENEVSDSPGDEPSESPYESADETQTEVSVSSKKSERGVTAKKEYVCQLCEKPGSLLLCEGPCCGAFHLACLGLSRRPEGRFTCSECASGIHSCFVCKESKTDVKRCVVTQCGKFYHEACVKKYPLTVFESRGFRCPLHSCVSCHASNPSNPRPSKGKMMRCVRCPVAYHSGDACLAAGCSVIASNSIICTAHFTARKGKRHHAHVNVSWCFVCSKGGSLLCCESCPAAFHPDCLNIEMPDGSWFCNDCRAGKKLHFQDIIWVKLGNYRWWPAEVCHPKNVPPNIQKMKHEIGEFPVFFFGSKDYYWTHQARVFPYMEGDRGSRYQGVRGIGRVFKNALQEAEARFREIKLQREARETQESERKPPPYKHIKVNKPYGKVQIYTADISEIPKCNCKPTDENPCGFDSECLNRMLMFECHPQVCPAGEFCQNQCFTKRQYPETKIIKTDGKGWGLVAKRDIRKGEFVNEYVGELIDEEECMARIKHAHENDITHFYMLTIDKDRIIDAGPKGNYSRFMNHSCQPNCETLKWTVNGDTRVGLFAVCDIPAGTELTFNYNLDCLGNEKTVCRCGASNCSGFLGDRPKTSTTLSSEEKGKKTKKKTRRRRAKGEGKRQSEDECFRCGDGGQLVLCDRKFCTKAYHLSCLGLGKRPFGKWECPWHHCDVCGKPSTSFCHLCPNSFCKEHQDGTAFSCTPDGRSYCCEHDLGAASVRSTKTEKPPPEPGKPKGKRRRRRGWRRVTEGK

COc1c(F)cc(-c2cc(Cn3cnc4c(N)ncnc43)c(N3CCC[C@](N)(C(O)C(F)F)C3)cn2)cc1F (stereo in doubt) [Example 165, (S)-1-((R)-3-amino-1-(4-((6-amino-9H-purin-9-yl)methyl)-6-(3,5-difluoro-4-methoxyphenyl)pyridin-3-yl)piperidin-3-yl)-2,2-difluoroethan-1-ol]
IC50 [1, 4]: 1 to 10 nM
IC50 [2]: 218 nM
IC50 [3, 5]: 1080 nM

C[C@H]1COC[C@@H]([C@@]2(N)CCCN(c3cnc(-c4ccc(F)c(F)c4)cc3Cn3cnc4c(N)ncnc43)C2)O1 [Example 288, 9-((5-((R)-3-amino-3-((2R,6S)-6-methyl-1,4-dioxan-2-yl)piperidin-1-yl)-2-(3,4-difluorophenyl)pyridin-4-yl)methyl)-9H-purin-6-amine]
IC50 [1]: 10 to 1000 nM
IC50 [2]: 2390 nM
IC50 ([3]; KMS11-Par line, 72 hours): 5720 nM

Nc1ncnc2c1ncn2Cc1cc(-c2cc(F)c(F)cc2F)ncc1N1CCC[C@](N)([C@@H](O)C(F)F)C1 [Example 156, (R)-1-((R)-3-amino-1-(4-((6-amino-9H-purin-9-yl)methyl)-6-(2,4,5-trifluorophenyl)pyridin-3-yl)piperidin-3-yl)-2,2-difluoroethan-1-ol]
IC50 [1, 4]: 1 to 10 nM
IC50 [2]: 41 nM
IC50 [3, 5]: 574 nM

CC1CCCCN1C(=O)C1(N)CCCN(c2cnc(-c3ccc(F)c(F)c3)cc2Cn2cnc3c(N)ncnc32)C1 (stereo not drawn) [Example 87, (3-amino-1-(4-((6-amino-9H-purin-9-yl)methyl)-6-(3,4-difluorophenyl)pyridin-3-yl)piperidin-3-yl)(2-methylpiperidin-1-yl)methanone]
IC50 [1, 4]: 10 to 1000 nM
IC50 [2]: 1600 nM
IC50 [3, 5]: 6420 nM

COc1cc(F)c(-c2cc(Cn3cnc4c(N)ncnc43)c(N3CCC[C@](N)([C@H](O)C(F)F)C3)cn2)cc1F [Example 161, (S)-1-((R)-3-amino-1-(4-((6-amino-9H-purin-9-yl)methyl)-6-(2,5-difluoro-4-methoxyphenyl)pyridin-3-yl)piperidin-3-yl)-2,2-difluoroethan-1-ol]
IC50 [1, 4]: 1 to 10 nM
IC50 [2]: 73 nM
IC50 [3, 5]: 502 nM

COc1c(F)cc(-c2cc(Cn3cnc4c(N)ncnc43)c(N3CCC[C@](N)(c4cccc(Cl)n4)C3)cn2)cc1F [Example 233, (R)-9-((5-(3-amino-3-(6-chloropyridin-2-yl)piperidin-1-yl)-2-(3,5-difluoro-4-methoxyphenyl)pyridin-4-yl)methyl)-9H-purin-6-amine]
IC50 [1]: 1 to 10 nM
IC50 [2]: 341 nM
IC50 ([3]; KMS11-Par line, 72 hours): 1100 nM

Nc1ncnc2c1ncn2Cc1cc(C2CCCCC2)ncc1N1CCC[C@](N)([C@H](O)C(F)F)C1 [Example 145, (S)-1-((R)-3-amino-1-(4-((6-amino-9H-purin-9-yl)methyl)-6-cyclohexylpyridin-3-yl)piperidin-3-yl)-2,2-difluoroethan-1-ol]
IC50 [1, 4]: 10 to 1000 nM
IC50 [2]: 990 nM
IC50 [3, 5]: 8110 nM

Cc1ccc(-c2cc(Cn3cnc4c(N)ncnc43)c(N3CCC[C@](N)([C@@H](O)C(F)F)C3)cn2)c(C)c1 [Example 126, (R)-1-((R)-3-amino-1-(4-((6-amino-9H-purin-9-yl)methyl)-6-(2,4-dimethylphenyl)pyridin-3-yl)piperidin-3-yl)-2,2-difluoroethan-1-ol]
IC50 [1, 4]: 1 to 10 nM
IC50 [2]: 469 nM
IC50 [3, 5]: 1110 nM

Nc1ncnc2c1ncn2Cc1cc(-c2ccc(F)cc2C(F)F)ncc1N1CCC[C@](N)([C@H](O)C(F)F)C1 [Example 159, (S)-1-((R)-3-amino-1-(4-((6-amino-9H-purin-9-yl)methyl)-6-(2-(difluoromethyl)-4-fluorophenyl)pyridin-3-yl)piperidin-3-yl)-2,2-difluoroethan-1-ol]
IC50 [1, 4]: 1 to 10 nM
IC50 [2]: 140 nM
IC50 [3, 5]: 1130 nM

CC(C)C(=O)[C@@]1(N)CCCN(c2cnc(-c3ccc(F)c(F)c3)cc2Cn2cnc3c(N)ncnc32)C1 [Example 104, (R)-1-(3-amino-1-(4-((6-amino-9H-purin-9-yl)methyl)-6-(3,4-difluorophenyl)pyridin-3-yl)piperidin-3-yl)-2-methylpropan-1-one]
IC50 [1, 4]: 10 to 1000 nM
IC50 [2]: 26 nM
IC50 [3, 5]: 60 nM

Nc1ncnc2c1ncn2Cc1cc(-c2ccc(F)c(F)c2F)ncc1N1CCC[C@](N)([C@@H](O)C(F)F)C1 [Example 172, (R)-1-((R)-3-amino-1-(4-((6-amino-9H-purin-9-yl)methyl)-6-(2,3,4-trifluorophenyl)pyridin-3-yl)piperidin-3-yl)-2,2-difluoroethan-1-ol]
IC50 [1]: 10 to 1000 nM
IC50 [2]: 1200 nM
IC50 ([3]; KMS11-Par line, 72 hours): 8930 nM

Nc1ncnc2c1ncn2Cc1cc(-c2ccc(F)c(F)c2)ncc1N1CCC[C@](N)([C@H](O)C(F)F)C1 [Example 114, (S)-1-((R)-3-amino-1-(4-((6-amino-9H-purin-9-yl)methyl)-6-(3,4-difluorophenyl)pyridin-3-yl)piperidin-3-yl)-2,2-difluoroethan-1-ol]
IC50 [1, 4]: 10 to 1000 nM
IC50 [2]: 443 nM
IC50 [3, 5]: 1940 nM

Nc1ncnc2c1ncn2Cc1cc(-c2ccc(OC(F)F)c(F)c2)ncc1N1CCC[C@](N)([C@H](O)C(F)F)C1 [Example 116, (S)-1-((R)-3-amino-1-(4-((6-amino-9H-purin-9-yl)methyl)-6-(4-(difluoromethoxy)-3-fluorophenyl)pyridin-3-yl)piperidin-3-yl)-2,2-difluoroethan-1-ol]
IC50 [1, 4]: 1 to 10 nM
IC50 [2]: 168 nM
IC50 [3, 5]: 1350 nM

Nc1ncnc2c1ncn2Cc1cc(-c2ccc(F)c(F)c2)ncc1N1CCC[C@](N)(c2ccc[nH]c2=O)C1 [Example 272, (S)-3-(3-amino-1-(4-((6-amino-9H-purin-9-yl)methyl)-6-(3,4-difluorophenyl)pyridin-3-yl)piperidin-3-yl)pyridin-2(1H)-one]
IC50 [1]: 1 to 10 nM
IC50 [2]: 1750 nM
IC50 ([3]; KMS11-Par line, 72 hours): 10500 nM

Nc1ncnc2c1ncn2Cc1cc(-c2ccc(F)c(Cl)n2)ncc1N1CCC[C@](N)([C@H](O)C(F)F)C1 [Example 175, (S)-1-((R)-3-amino-1-(4-((6-amino-9H-purin-9-yl)methyl)-6′-chloro-g-fluoro-[2,2′-bipyridin]-5-yl)piperidin-3-yl)-2,2-difluoroethan-1-ol]
IC50 [1]: 10 to 1000 nM
IC50 [2]: 534 nM
IC50 ([3]; KMS11-Par line, 72 hours): 11300 nM

COc1ccc(-c2cc(Cn3cnc4c(N)ncnc43)c(N3CCC[C@](N)(c4ccc(F)c(Cl)n4)C3)cn2)cc1F [Example 188, (R)-9-((5-(3-amino-3-(6-chloro-5-fluoropyridin-2-yl)piperidin-1-yl)-2-(3-fluoro-4-methoxyphenyl)pyridin-4-yl)methyl)-9H-purin-6-amine]
IC50 [1]: 1 to 10 nM
IC50 [2]: 1010 nM
IC50 ([3]; KMS11-Par line, 72 hours): 1910 nM

Nc1ncnc2c1ncn2Cc1cc(-c2cnc(O)c(F)c2)ncc1N1CCCC(N)(c2cccc(Cl)n2)C1 (stereo not drawn) [Example 244, 5-(3-amino-3-(6-chloropyridin-2-yl)piperidin-1-yl)-4-((6-amino-9H-purin-9-yl)methyl)-5′-fluoro-[2,3′-bipyridin]-6′-ol]
IC50 [1]: 10 to 1000 nM
IC50 [2]: 12500 nM
IC50 ([3]; KMS11-Par line, 72 hours): 33300 nM

Nc1ncnc2c1ncn2Cc1cc(-c2ccc(Cl)c(F)c2)ncc1N1CCC[C@](N)([C@H](O)C(F)F)C1 [Example 152, (S)-1-((R)-3-amino-1-(4-((6-amino-9H-purin-9-yl)methyl)-6-(4-chloro-3-fluorophenyl)pyridin-3-yl)piperidin-3-yl)-2,2-difluoroethan-1-ol]
IC50 [1, 4]: 10 to 1000 nM
IC50 [2]: 68.7 nM
IC50 [3, 5]: 1770 nM
